Results on three compounds are retold here after patent US20220187274A1, “NEMATODE TRAP PLATE AND USE THEREFOR” (priority 2019, published 2022).

The structures appear in SMILES notation.

In assay [1] the test system is hetero group M of free-living soil nematodes (collected at Ogasawara village, Tokyo, Japan). In words: Nematode trap plate olfaction test with soil nematodes other than C. elegans, group M. The class given is in vivo. Particulars: Example 15, plate A1, 1 mM diluted solution, negative = avoidance. How it is done:
(§1) Example 15 was conducted for the purpose of studying applicability of the plate of the present invention to evaluation of a response of nematodes other than C. elegans. Specifically, the test was conducted to examine a response of a hetero group M of free-living soil nematodes (collected at Ogasawara village, Tokyo, Japan) and a hetero group H of free-living soil nematodes (collected at Takayama city, Gifu, Japan) with respect to a volatile substance. A plate A1 identical to that produced in Example 1 was produced. Left fall-in cavities 2a were filled with a test solution, whereas right fall-in cavities 2b were filled with a buffer solution as a control. The test solution used in Example 15 was a diluted solution (1 mM) of vanillin, which is a kind of volatile substance. […] Then, the plate was left at least for an hour under a light-shielded environment. […] The chemotaxis index (C.I.) was obtained in a similar manner to Example 1, and the response of the nematodes was evaluated. […] Note that the tests involving use of the nematode group M and the nematode group H were conducted independently.

For assay [2], the system named is hetero group H of free-living soil nematodes (collected at Takayama city, Gifu, Japan). In words: Nematode trap plate olfaction test with soil nematodes other than C. elegans, group H. It counts as in vivo. Particulars: Example 15, plate A1, 1 mM diluted solution, positive = attraction. How it is done:
as §1

The test system of assay [3] is C. elegans. In words: Nematode trap plate (PASS) olfaction test, chemotaxis index to a volatile substance. The class given is in vivo, Caenorhabditis elegans. How it is done: (Method for Evaluating Test Result) On the basis of the number of nematodes caught in the fall-in cavity which number has been obtained in the above-described manner, a response of the nematodes is evaluated. In the olfaction test or gustation test for evaluating a response of the nematodes to a chemical substance or the like, it is possible to evaluate the response on the basis of, e.g., a chemotaxis index (it may sometimes be abbreviated as “C.I.”). The chemotaxis index, which is used to evaluate the taxis of the test subject to the chemical substance or the like, is defined by in the following manner. That is, the number of nematodes caught in a control fall-in cavity is subtracted from the number of nematodes caught in a fall-in cavity for the test subject so that a difference is yielded, and the difference is divided by the total number of nematodes caught in all the fall-in cavities. In a case where there exist two or more fall-in cavities for the test subject, the total number of nematodes caught in these fall-in cavities is considered as “the number of nematodes caught in the fall-in cavity for the test subject”. Similarly, in a case where there exist two or more control fall-in cavities, the total number of nematodes caught in these control fall-in cavities is considered as “the number of nematodes caught in the control fall-in cavity”. Specifically, the chemotaxis index (C.I.) can be obtained by the following formula, where Ni is the total number of nematodes caught in the fall-in cavity for the test subject and N2 is the total number of nematodes caught in the control fall-in cavity.
Chemotaxis index (C.I.)=(N1−N2)/(N1+N2).
In the Examples shown below, tests were conducted by using C. elegans as the nematodes, unless otherwise stated. In each of the Examples, a commercially-available circular plastic dish was used as the container of the nematode trap plate. The size of the plastic dish, the capacity (volume) of a solid medium mainly made of an agar, and the number of fall-in cavities to be formed were set as appropriate in consideration of the purpose of the test, the volume of a sample obtained, and the like. In each case, the fall-in cavities were formed in the shape of a cylinder having a diameter of approximately 5 mm. […] The following description will be made by using the names of the plates shown in Table 1 (plate A1, plate A2, plate B1, plate B2, plate B3, plate B4, and plate B5).
First, a plate A1 was produced that included (a) two fall-in cavities 2a formed in a left part of a solid medium so as to be arranged side by side along the outer periphery of the solid medium and (b) two fall-in cavities 2b formed in control positions in a right part of the solid medium in a similar manner to the fall-in cavities 2a. […]
Then, the response was evaluated. […]

Assay [4] concerns C. elegans. In words: Conventional chemotaxis evaluation method on assay plate with sodium azide (Comparative Example 1). The class given is in vivo, Caenorhabditis elegans. Particulars: Comparative Example 1, conventional method; undiluted solution and test solution with a large dilution factor; three tests. How it is done:
As a comparative example, evaluation of a response of nematodes was conducted in accordance with a conventional chemotaxis evaluation method (e.g., Non-Patent Literature 1). […] Similarly to the test in Example 1, an undiluted solution of diacetyl and diluted solutions prepared by diluting diacetyl at five different concentrations were used as test solutions. One drop of the test solution was dripped on each of two positions (test solution spots) on a left half of a circle with a radius of 3 cm about the center of the assay plate. Meanwhile, the buffer solution serving as the control was dripped on each of positions (control spots) that were on a right half of the circle with a radius of 3 cm about the center of the assay plate and that were arranged point symmetrically. […] Based on the captured image of the entire assay plate, an example of which is shown in FIG. 11, the number of nematodes fixed under anesthesia was counted in each of test solution areas extending concentrically from the two test solution spots on the left part and control areas extending concentrically from the two control spots on the right part. […] The response of the nematodes was evaluated with use of the chemotaxis index (C.I.), which was used also in Example 1, assuming that the number of nematodes in the test solution areas was N1 and the number of nematodes in the control areas was N2. […]

Turning to `COc1cc(C=O)ccc1O` [vanillin], the “Chemotaxis index (C.I.)” value in assay [1] is given as “negative C.I. value”; in assay [2] it was “positive C.I. value”.

Consider `O=Cc1ccccc1` [benzaldehyde], for which, in assay [3] (Example 3, plate B1, each of three dilutions from 10000-fold to 100000-fold of 9.8 M undiluted solution, mean of four tests, maximum 1.0), the “Chemotaxis index (C.I.)” value is on record as “not less than 0.9”.

Turning to `CC(=O)C(C)=O` [diacetyl], the “Chemotaxis index (C.I.)” value in assay [3] (Example 1, plate A1, four other dilution concentrations among six, all three tests, positive = attraction) was “positive values”; in assay [3] (Example 1, plate A1, two highest concentrations among six (undiluted 11.5 M to 100000-fold dilution), all three tests, negative = escaping) it was “negative values”; in assay [3] (Example 2, plate A2 (solid medium volume twice that of A1), six concentrations, undiluted to 100000-fold, three tests), “the same results as in Example 1”; in assay [4], “a positive value was obtained in one case, and a negative value was obtained in another case”.
